The values below are quoted from earlier work in patent publication US11896675B2, “Site-specific antibody conjugation and antibody-drug conjugate as specific embodiment thereof” (AbTis Co., Ltd., priority 2019, dated 2024).

Square brackets hold non-standard residues; d marks the D form. Ends that are not written are not given here. Cit = NC(=O)NCCC[C@H](N)C(=O)O

The target in data set [1] is IgG. The following applies: towards IgG, obtained at different conditions or by different methods; for Kd: read-out: Binding Constant Kd.
The subject of data set [2] is IgG. The following applies: towards IgG.

For orientation: Kd means a measure of binding affinity in units of concentration. FYWHCLDE: the Kd in data set [1] is 1.5 µM. The “Binding Capacity (maximal binding capacity qm)” value in data set [2] was 104.2 mg/mL. For FYCHWALE, the Kd in data set [1] is 6.1 µM. Moreover, the “Binding Capacity (maximal binding capacity qm)” value in data set [2] was 87.6 mg/mL. Turning to “HWRGWV [comb. library peptide, SpA mimic]”, in data set [1], the Kd is 10 µM. In data set [2], the “Binding Capacity (maximal binding capacity qm)” value was 26.4 mg/mL. For “KHRFNKD [phage-display library peptide, SpA mimic]”, the Kd in data set [1] was 0.02 µM.

For FYCHTIDE [FYCHTIDE(3)], in data set [1], the Kd was 5.7 µM. Further, the “Binding Capacity (maximal binding capacity qm)” value in data set [2] is given as 63.7 mg/mL. Regarding “FRRHL [comb. library peptide, SpA mimic]”, the Kd in data set [1] was 26 µM. Moreover, in data set [2], the “Binding Capacity (maximal binding capacity qm)” value is on record as 33.6 mg/mL. “D2AAG (DDAAG) [Compound D2AAG, comb. library ligand, SpA mimic]”: in data set [1], the “Binding Constant Ka” value is on record as “Ka = 7.9 × 10^5M^−1”. In addition, the “Binding Capacity (maximal binding capacity qm)” value in data set [2] is 36.2 mg/mL. Regarding DAAG [comb. library ligand, SpA mimic], the “Binding Constant Ka” value in data set [1] is on record as “Ka = 2.6 × 10^5M^−1”. In addition, the “Binding Capacity (maximal binding capacity qm)” value in data set [2] is on record as 49.6 mg/mL.

With RRGW, the Kd in data set [1] is 0.0005 µM. With NARKFYKG [spot peptide array peptide], the “Binding Constant Ka” value in data set [1] is “Ka = 6.5 × 10^6M^−1”. Further, in data set [2], the “Binding Capacity, DBC (dynamic binding capacity)” value is reported as “DBC-5.0”. As for cyclo[(Link-M-WFRHYK], in data set [1], the Kd is 7.6 µM. The “Binding Capacity (maximal binding capacity qm)” value in data set [2] is recorded as 19.7 mg/mL. Take “APAR [comb. tetrapeptide library peptide]”: in data set [1], the Kd is 0.094 µM. In addition, in data set [2], the “Binding Capacity (maximal binding capacity qm)” value is recorded as 9.1 mg/mL. For NKFRGKYK [spot peptide array peptide], the “Binding Constant Ka” value in data set [1] is listed as “Ka = 8.6 × 10^6M^−1”. Further, the “Binding Capacity, DBC (dynamic binding capacity)” value in data set [2] is reported as “DBC-4.9”. With “HWCitGWV (HW[Cit]GWV) [comb. library peptide, SpA mimic]”, the Kd in data set [1] was 108 µM. Moreover, the “Binding Capacity (maximal binding capacity qm)” value in data set [2] was 78 mg/mL. “HYFKFD [comb. library peptide, SpA mimic]”: the Kd in data set [1] is 11 µM. Further, the “Binding Capacity (maximal binding capacity qm)” value in data set [2] is on record as 27.0 mg/mL. As for “EPIHRSTLTALL [phage display library peptide, SpA mimic]”, the “Binding Capacity” value in data set [2] is 320 µg/g.
